Consider one compound from US20060142326A1, “Use of pyrazolopyridines for the treatment of cognitive deficits” (priority 2003, published 2006).

For data set [1], the system named is granular cells of the cerebellum. In words: Toxicity induced by NMDA/serine on granular cells of the cerebellum, MTT test. It counts as cell-based, Wistar rat. The conditions noted are these: 100 μM NMDA + 10 μM D-serine, six hours. The protocol: (§1) Seven day old Wistar rats are decapitated and their cerebella are dissected. After having removed the meninges, the tissue is cut into small pieces and trypsinised for 15 minutes at 37° C. The cells are disassociated by trituration and placed in cultures at a density of 300,000 cells per cm^2 in Eagle's base medium supplemented with 10% foetal calf serum and 2 mM glutamine. The following day 10 μM ARA-C, an antimitotic, is added so as to prevent proliferation of the glial cells. The cells are treated for 9 days after placing in culture with the etazolate inhibiting compound, before adding toxics, 50 μM kainate or 100 μM N-methyl-D-aspartate in the presence of 10 μM D-serine. 8-bromo-cAMP is added just before the toxics. All of the treatments are carried out at least in duplicate and in at least two different cultures. Following an incubation of six hours, the toxicity is measured by an MTT test. The results, standardised to the untreated average, are statistically analysed by the Wilcoxon test. The significant value is established at p less than or equal to 0.05. Toxicity is measured using the MTT test. Following incubation with the compounds, MTT is added at a final concentration of 0.5 mg/ml per well. The plaques are then incubated for 30 minutes at 37° C. in the dark. […] The absorbance at 550 nm is read and the viability percentage is calculated.
In general terms: Tetrazolium assays rely on reduction of a dye to a coloured formazan, in cell work by metabolically active cells.

Data set [2] shares this test system. The data set is described as follows: Toxicity induced by kainate on granular cells of the cerebellum, MTT test. It counts as cell-based, Wistar rat. The following applies: 50 μM kainate, six hours. The protocol:
as §1

Data set [3] concerns cortical neurons. The data set is described as follows: Toxicity induced by NMDA/serine on cortical neurons, MTT test. It counts as cell-based, Wistar rat. The conditions noted are these: 20 μM NMDA + 10 μM D-serine, six hours. The protocol:
(§2) 16 day old Wistar rat embryos are taken and the cortexes dissected. Following trypsination at 37° C. for 25 minutes, the cells are dissociated by trituration. The cells are sown in minimum essential medium, supplemented with 10% horse serum and 10% foetal calf serum and 2 mM glutamine, at a density of 300,000 cells per cm^2. After 4 days in culture half of the medium is changed with minimum essential medium supplemented with 5% horse serum and 2 mM glutamine. […] After seven and eleven days of culture, half of the medium is changed with conditioned medium. The conditioned medium is made up from MEM containing 5% horse serum and 2 mM glutamine; this medium is passed over a carpet of cortical astrocytes for a night before being used. On day 14, the cells are treated with the etazolate inhibitor compound, before adding toxics, 50 μM kainate or 20 μM N-methyl-D-aspartate in the presence of 10 μM D-serine. All of the treatments are carried out at least in duplicate and in at least two different cultures. Following an incubation of six hours the toxicity is measured by an MTT test. The results, standardised to the untreated average, are statistically analysed by the Wilcoxon test. The significant value is established at ρ less than or equal to 0.05. Toxicity is measured using the MTT test. […] The absorbance at 550 nm is read and the viability percentage is calculated.

For data set [4], the system named is cortical neurons. The data set is described as follows: Toxicity induced by kainate on cortical neurons, MTT test. The data set is classed as cell-based, Wistar rat. The conditions noted are these: 50 μM kainate, six hours. The method, then: as §2
Data set [5] deals with ventral spinal cord cells. The data set is described as follows: Toxicity induced by NMDA/serine on ventral spinal cord cells, MTT test. The data set is classed as cell-based, Wistar rat. The following applies: 25 μM NMDA + 10 μM D-serine, 3 hours. The method, then:
The cells are isolated from 14 day old Wistar rat embryos. Upon their arrival, the pregnant female rats are sacrificed by means of carbon dioxide. The series of embryos is taken and placed in a box containing PBS. The spinal cord of each embryo is dissected and the ventral cord is separated from the dorsal cords. The ventral cords are then trypsinised at 37° C. for 20 mins. The effect of the trypsin is halted by the addition of a medium made up from Leibovitz 15 medium, 20% horse serum, N2 (1×) supplement, 20% glucose (3.2 mg/ml), 7.5% bicarbonate (1.8 mg/ml) and L-glutamine (2 mM). The cells are dissociated by trituration. The accumulated tissue is removed and the dissociated cells are then quantified by dying with trypan blue. The cells sown at a density of 250 000 cells/cm^2 in a medium made up from neurobasal medium, horse serum (2%), B27 (1×) supplement, and glutamine (2 mM). After 3 days of in vitro culture, an anti-mitotic agent, ARA-C (5 μM), is added to the cells so as to inhibit production of glial cells. The cells are placed in culture at 37° C. in a humidified incubator (5% CO2) for 9 days. […] The results are standardised to the average of the untreated controls and analysed statistically by means of a Wilcoxon test with ρ less than 0.05. Toxicity is measured using the MTT test. […] The absorbance at 550 nm is read and the viability percentage is calculated.

For the next data set, the system named is SH-SY5Y cells. In words: Toxicity induced by 6-hydroxydopamine (oxidative stress) on SH-SY5Y cells, MTT test. It counts as cell-based, human. The conditions noted are these: 6-OHDA treatment. The method, then: In this example, cells from the SH-SY5Y line were placed in culture according to the techniques known to experts in the field. These cells, derived from a human neuroblast, have properties which characterise a neuronal precursor at a premature stage of development. The toxic used is 6-hydroxydopamine (6-OHDA) which induces oxidative stress. Toxicity is measured by an MTT test.

The subject of data set [6] is cerebral infarction in rats. In words: Model of cerebral infarction in rats (occlusion of the internal carotide and medium arteries of the brain). The following applies: rat. The data set is classed as in vivo. The method, then: The in vivo protective effect of etazolate was evaluated in a model of cerebral infarction in rats. During this study, a cerebral infarction was brought about by an intracavity occlusion of the internal carotide and the medium arteries of the brain. A group of eight rats was treated with etazolate (10 mg/kg, p.o.) before and several times after occlusion. A group of eight rats was treated with the reference compound, L-NAME (1 mg/kg, i.p.) before and several times after occlusion. A group of eight rats was only treated with the vehicle. The effects were evaluated by clinical observations, neurological function tests and by establishing the size of the infarction at the end of the study.

For a further data set, the system named is old rats. The data set is described as follows: Aquatic labyrinth test (Morris pool) in old rats. The data set is classed as in vivo, rat. The source says:
This test is used to evaluate the capacities to memorise and to manage spatial information in rats in an aversive situation. The task consists for the animal of locating with the help of distance indices a <<refuge >> platform, invisible by immersion in a tank filled with opacified water. The device makes it possible to evaluate the reference memory of the animal (the platform remains in the same place on each day of the test). This test makes it possible to appreciate the […] performances dependent upon the functions of the hippocampus of the animals tested. In particular, this test makes it possible to discriminate between the performances of adult rats (10 months) and those of old rats (30 months). The hippocampus is a cerebral structure the functions of which are altered prematurely in Alzheimer's disease. The Morris pool test is therefore particularly recognised by experts in the field as making it possible to appreciate the pharmacological properties of compounds intended to treat Alzheimer's disease and other diseases associated with a cognitive deficit. Old rats treated with etazolate (3 mg/kg and 10 mg/kg) administered orally and rats treated by the vehicle were used for this study. The performances of these animals in the Morris pool test were compared to those of a control group of adult rats.

Data set [7] is described as follows: Single increasing oral dose study in healthy volunteers (tolerance, plasmatic dosage). It counts as in vivo, human. The protocol:
In this study, single, increasing doses of etazolate (0.5, 1, 2, 5, 10 and 20 mg) were administered orally in the form of capsules dosed at 0.5 and 5 mg to different and sequential groups of eight young, healthy, volunteer subjects of the male sex. This study was carried out in just one centre, double-blind, and two of the eight subjects were given a placebo. The parameters evaluated were clinical (appearance of adverse effects, of clinical signs, change in arterial pressure or heart rate), electrocardiographic (ECG recording) and biological tolerance (hematology and sanguineous biochemistry, urinary examination) for the 24 hrs following administration of the product. A plasmatic dosage of the product was carried out in each subject at different times before and after administration of the product (0.25-0.50-1.00-1.50-2.00-3.00-4.00-5.00-6.00-8.00-10.00-12.00 and 24.00 hours). A urinary dosage of the product was also carried out from urines collected before and after administration of the product (4, 4-8, 8-12 and 12-24 hours).

`CCOC(=O)c1cnc2c(cnn2CC)c1NN=C(C)C` [etazolate]: the protective effect came out at 40% in data set [1]; 50% in data set [2]; 47% in the data set on cortical neurons [3]; 40% with cortical neurons [4]; 36% in [5]; 40% with SH-SY5Y cells. Moreover, the “neurological evaluation relative to the control group” value in data set [6] (10 mg/kg p.o.) is “improvement”. In addition, in data set [6] (10 mg/kg p.o. before and several times after occlusion, average), the “reduction of the size of the infarction relative to the control” value is listed as 28%. This compound gave a hypoactivity in data set [6] (10 mg/kg p.o., control group 42%) of 31%. Also, the “performances in the Morris pool test” value was “slightly improves the performances of old rats” with old rats (3 mg/kg orally) and “importantly brings the performances of old animals closer to those of adult animals” in the data set on old rats (10 mg/kg orally, compared to adult rats). In addition, the secondary effects entry in data set [7] (healthy male volunteers, single oral doses 0.5-20 mg) is recorded as “did not involve any secondary effects”. Moreover, the “tolerance (clinical, electrocardiographic, biological)” value in data set [7] (healthy male volunteers, single oral doses 0.5-20 mg, 24 hrs) is “well tolerated”. In addition, the “absorption (plasmatic dosages)” value in data set [7] (humans, oral capsules, at strong doses) was “good absorption”.
